Source: patent EP0569598A1, “BENZOXAZINONE DERIVATIVE” (JAPAN TOBACCO INC., priority 1991, dated 1993)

Experiments:
[1] = biological target: T1, human leukocyte elastase (HLE) (Homo sapiens, UniProt P08246); assay: HLE inhibitory activity (synthetic substrate, pNA release, absorbance 405 nm); type: biochemical; settings: pH 8.6; HLE 5.63 nM, substrate 0.2625 mM; 37°C; read-out: IC₅₀ value HLE
T1 construct: the mixed solution was subjected to density gradient centrifugation, thereby obtaining neutrophiles; from tissue; host or cells: neutrophils from human vein blood (buffy coat)
T1 sequence (P08246 30-247 limits assumed): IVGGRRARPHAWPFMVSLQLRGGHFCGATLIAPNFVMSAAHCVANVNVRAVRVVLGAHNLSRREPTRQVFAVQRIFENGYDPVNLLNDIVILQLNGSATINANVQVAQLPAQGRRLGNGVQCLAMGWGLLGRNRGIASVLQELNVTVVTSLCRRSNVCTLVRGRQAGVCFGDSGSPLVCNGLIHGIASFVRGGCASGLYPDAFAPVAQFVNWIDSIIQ
Method: (§1) Activities of the Benzoxazine derivatives of the present invention against human leukocyte elastase (HLE), human sputum elastase (HSE), human cathepsin G (HCG), bovine pancreatic α-chmotrypsin (CYT) and bovine pancreatic trypsin (TRY) were measured by the following method.
A buffy coat was obtained by subjecting human vein blood to centrifugation. To the buffy coat was added distilled water to make a hypotonic solution, thereby bursting erythrocytes. To the residual blood cell component was added a 33.4% of Conrey 400 solution/9% Ficoll solution (the ratio of the former solution to the latter solution is 10:24), and the mixed solution was subjected to density gradient centrifugation, thereby obtaining neutrophiles. The neutrophile fraction was washed with Hanks' buffer for three times and then cells were recovered and cryopreserved at -80°C until use. The cryopreserved-cells were thawed with warm water at 37°C and suspended in a 9-fold volume of lysis buffer containing 0.1M Tris-HCl (pH7.5), 1M MgCl₂ and 0.1% Brij 35. The suspended cells are destroyed by means of polotoron with ice-cooling. The cell suspension was subjected to centrifugation at 100,000 x g for 1 hour. After removing precipitates, 2-fold volume of a Tris-HCl buffer containing 5 mM Tris-HCl(pH 7.5), 1M NaCl and 1.1% Brij 35 was added to the supernatant, thereby obtaining a crude solution of an enzyme extract. The crude solution was subjected to aprotinine affinity column and extracted with an elution buffer containing […] of glycine-HCl (pH 3.3), 1M NaCl and 0.1% Brij 35, thereby obtaining an active fraction. The obtained active fraction was further subjected to MONO S-ion-exchange chromatography and eluted with 2M NaCl linear gradient. The obtained fraction was dialyzed against 25 mM Tris-HCl (pH8.6) and lyophilized, thereby obtained an enzyme sample.
(§2) A test compound was dissolved in DMSO (for fluorometry) and prepared various concentration of the solution. To each concentration was added 2-fold volume of 0.2M Tris-HCl (pH8.6), thereby obtaining a test solution. Synthetic substrate (Funakoshi, L-1335) was dissolved in DMSO and 2-volume of 0.2M Tris-HCl (pH8.6) was added thereto, thereby obtaining a substrate solution. The reaction was performed using a microplate having 96 wells (Nunk). Six-time reactions were repeated for each concentration. One handred and forty µl of an enzyme solution containing 0.2M Tris-HCl (pH8.6), 30 µl of a test solution and 30 µl of a substrate solution per well of the microplate were respectively pre-incubated at 37°C for 10 minutes. After completion of the incubation, the enzyme solution was mixed with the test sample and incubated for 10 minutes and then the substrate solution was added to perform an enzyme reaction. The absorbance of released P-nitroanilide (PNA) was measured at the wave length of 405 nm by means of a microplate reader (MTP-100; CORONA), thereby determining the substrate decomposition. The rate of the substrate decomposition was shown as an average value of 6 repeated reactions. The inhibitory concentration of a test compound relative to the amount of the substrate decomposition in the reaction mixture without a test compound was regarded as an IC₅₀ value. The final concentration of HLE and a synthesized substrate in the reaction mixture were 5.63 nM and 0.2625 mM, respectively.

[2] = tested on: Neutrophile Infiltration of Carrageenin-induced Air Pouch inflammation; assay: Suppression of neutrophile infiltration in carrageenin-induced air pouch inflammation; type: in vivo, rat; settings: Dose 10.9 µmol into the air pouch immediately after carrageenin, exudate cells five hours later, SD female rats
Method: SD female rats in 5 weeks old, having the weight in the range of 110 to 130g were used. A group was regarded to have 5 rats. In the first step, an air pouch was formed by a hypodermic injection of 8 ml of air on the back of a rat under ether anesthesia. Twenty four hours later, to the air pouch was added 5 ml of a saline containing 1% carrageenin (Wako Co., Ltd.). A test compound of the present invention, which has been dissolved in 200 µl DMSO (dimethylsulfoxide), was administered in the air pouch immediately after the carrageenin injection.
Five hours later, the rat was killed and the blood was released. Then, 5 ml of PBS containing EDTA (ethylenediamine tetraacetate) was injected in the air pouch. The exudate in the air pouch was washed and collected. An aliquot of the exudate was measured by a colter counter and determined the number of cells in the collected exudate.
The value subtracting migrating cell number in an experiment performed without carrageenin injection from the migrating cell number in a control experiment administering no the compound of the present invention was regarded as 100, the chemotaxis suppressing activity was determined as the following formula: Cell Infiltration Suppressing Activity (%) [formula] = 100 - S/T x 100 [formula] = 100 - (U - V )/(W - V) x 100 [formula] […]

[3] = biological target: T2, bovine pancreatic α-chmotrypsin (CYT) (Bos taurus, UniProt P00766); assay: CYT inhibitory activity (synthetic substrate, pNA release); type: biochemical; settings: pH 8.0; CYT 3.4 nM, substrate 0.273 mM; read-out: IC₅₀ value CYT
T2 construct: bovine pancreatic α-chmotrypsin (CYT); purchased Sigma Co., Ltd
Method: as §1, §2
a) Enzyme obtaining route CYT was obtained from Sigma Co., Ltd.
Substantially the same method as used in the measurement of the HLE inhibitory activity was used except that a buffer solution (pH 8.0) was used. The final concentration of CYT and synthetic substrate (Funakoshi, L-1010) in a reaction mixture were 3.4 nM and 0.273 mM, respectively.

human cathepsin G (HCG) = biological target: T3, human cathepsin G (HCG) (Homo sapiens, UniProt P08311); assay: HCG inhibitory activity (synthetic substrate, pNA release); type: biochemical; settings: pH 7.5; HCG 50 nM, substrate 0.5 mM; read-out: IC₅₀ value HCG
T3 construct: purchased Cosmo Bio Inc
T3 sequence (P08311 21-244): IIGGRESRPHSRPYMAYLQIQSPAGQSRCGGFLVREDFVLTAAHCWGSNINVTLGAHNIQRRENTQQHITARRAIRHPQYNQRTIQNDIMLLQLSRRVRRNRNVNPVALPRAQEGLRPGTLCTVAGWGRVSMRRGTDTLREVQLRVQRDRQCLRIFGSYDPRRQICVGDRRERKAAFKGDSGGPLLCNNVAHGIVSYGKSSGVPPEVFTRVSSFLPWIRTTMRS
Method: as §1, §2
a) Enzyme obtaining route HCG was obtained from Cosmo Bio Inc.
The same method as in the measurement of HLE inhibitory activity was used except that a buffer solution (pH 7.5) was used. The final concentration of HCG and synthetic substrate (Funakoshi, L-1010) in a reaction mixture were 50 nM and 0.5 mM, respectively.

- IC50 [1]: 340 nM
- IC50 [3]: 2080 nM
- IC50 (human cathepsin G (HCG)): 58300 nM
Compound: Cc1cccc2nc([C@@H](NC(=O)COC(c3ccccc3)c3ccccn3)C(C)C)oc(=O)c12 (mixture of isomers) [Compound 3, 5-methyl-2-[2-methyl-1(S)-[[[(±)-α-(2-pyridyl)benzyloxy]acetyl]amino]propyl]-4H-3,1-benzoxazin-4-one]
- Rate (%) of Suppressing Cell Infietration [2]: 33.9%
- Cell Infiltration ([2]; control regarded as 100): 66.1
